Laboratory results published in PubChem BioAssay AID1919007 (Molecular Pharmacology Branch, DTP, NCI, 2023).
Values joined by “and” are separate entries in the source; they are usually repeats but may differ in a detail not shown here. Equal entries are not always repeated.

System: A498 complex spheroids with HUVEC/MSC, growth
Assay: Anticancer human tumor A498 cell line growth inhibition [AhR];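 note: seven day exposure starting three days after spheroid seeding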;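 for viability, T/C: luminescence signal used as a surrogate for viable cells; luminescence viability scaled so 100% equals DMSO vehicle wells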
Details: for viability, T/C: stronger effect = lower value; active = viability on the fitted dose curve at most 10% of control; inactive = the rest
Method in brief: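 Spheroids combined tumor cells with HUVEC endothelial cells and human MSCs as stroma. AhR antagonists were paired with standard or investigational drugs, each dosed in half-log steps down from near clinical Cmax, or from 10 microM where Cmax was unknown.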

[1] = curve of first compound, second compound 0.1 µM
[2] = curve of first compound, second compound 0.316 µM
[3] = curve of first compound, second compound 1 µM
[4] = curve of first compound, second compound 3.16 µM
[5] = curve of first compound, second compound 10 µM
[6] = second compound 0.1 µM, first compound 0.0316 µM
[7] = second compound 0.1 µM, first compound 0.1 µM
[8] = second compound 0.1 µM, first compound 0.316 µM
[9] = second compound 0.1 µM, first compound 1 µM
[10] = second compound 0.1 µM, first compound 3.16 µM
[11] = second compound 0.1 µM, first compound 10 µM
[12] = second compound 0.316 µM, first compound 0.0316 µM
[13] = second compound 0.316 µM, first compound 0.1 µM
[14] = second compound 0.316 µM, first compound 0.316 µM
[15] = second compound 0.316 µM, first compound 1 µM
[16] = second compound 0.316 µM, first compound 3.16 µM
[17] = second compound 0.316 µM, first compound 10 µM
[18] = second compound 1 µM, first compound 0.0316 µM
[19] = second compound 1 µM, first compound 0.1 µM
[20] = second compound 1 µM, first compound 0.316 µM
[21] = second compound 1 µM, first compound 1 µM
[22] = second compound 1 µM, first compound 3.16 µM
[23] = second compound 1 µM, first compound 10 µM
[24] = second compound 3.16 µM, first compound 0.0316 µM
[25] = second compound 3.16 µM, first compound 0.1 µM
[26] = second compound 3.16 µM, first compound 0.316 µM
[27] = second compound 3.16 µM, first compound 1 µM
[28] = second compound 3.16 µM, first compound 3.16 µM
[29] = second compound 3.16 µM, first compound 10 µM
[30] = second compound 10 µM, first compound 0.0316 µM
[31] = second compound 10 µM, first compound 0.1 µM
[32] = second compound 10 µM, first compound 0.316 µM
[33] = second compound 10 µM, first compound 1 µM
[34] = second compound 10 µM, first compound 3.16 µM
[35] = second compound 10 µM, first compound 10 µM

COc1ccc([C@@H](O)c2cc(-c3ncnc4cc(N5CCOCC5)ccc34)c(F)cc2Cl)nn1 + Cc1cncc(-c2nc(NCCc3c[nH]c4ccccc34)c3ncn(C(C)C)c3n2)c1
549 nM: IC50 [2]
477 nM: IC50 [1]
active: viability, T/C [30] 3.91% | viability, T/C [31] 4.22% | viability, T/C [32] 4.26% | viability, T/C [33] 3.54% | viability, T/C [34] 3.86% | viability, T/C [35] 8.65%
< 31.6 nM: IC50 [4] | IC50 [5]
inactive: viability, T/C [6] 89.2% | viability, T/C [7] 86.9% | viability, T/C [8] 59% | viability, T/C [9] 30.6% | viability, T/C [10] 19.1% | viability, T/C [11] 10.1% | viability, T/C [12] 89.5% | viability, T/C [13] 85.9% | viability, T/C [14] 67% | viability, T/C [15] 31.1% | viability, T/C [16] 17.7% | viability, T/C [17] 11.8% | viability, T/C [18] 80.6% | viability, T/C [19] 85.1% | viability, T/C [20] 57.5% | viability, T/C [21] 26.6% | viability, T/C [22] 17.5% | viability, T/C [23] 12.4% | viability, T/C [24] 45.1% | viability, T/C [25] 49.3% | viability, T/C [26] 39.3% | viability, T/C [27] 25% | viability, T/C [28] 15.4% | viability, T/C [29] 11.6%
434 nM: IC50 [3]

Cn1ncnc1C1c2n[nH]c(=O)c3cc(F)cc(c23)NC1c1ccc(F)cc1 (stereo not drawn)
> 100 nM: IC50 (curve of compound)
inactive: viability, T/C (compound 0.000316 µM) 105% and 97.2% and 110% | viability, T/C (compound 0.001 µM) 117% and 105% and 114% | viability, T/C (compound 0.00316 µM) 109% and 102% and 103% | viability, T/C (compound 0.01 µM) 108% and 101% and 100% | viability, T/C (compound 0.0316 µM) 112% and 106% and 103% | viability, T/C (compound 0.1 µM) 107% and 98.3% and 85.8%

CC[C@@]1(O)C(=O)OCc2c1cc1n(c2=O)Cc2cc3c(CN(C)C)c(O)ccc3nc2-1
> 100 nM: IC50 (curve of compound)
inactive: viability, T/C (compound 0.000316 µM) 97.9% and 107% and 110% | viability, T/C (compound 0.001 µM) 103% and 111% and 112% | viability, T/C (compound 0.00316 µM) 112% and 102% (2×) | viability, T/C (compound 0.01 µM) 86.9% and 93.3% and 98.7% | viability, T/C (compound 0.0316 µM) 79.8% and 82.3% and 85.8% | viability, T/C (compound 0.1 µM) 73.1% and 85% and 66.5%

O=C(c1cc(Cc2n[nH]c(=O)c3ccccc23)ccc1F)N1CCN(C(=O)C2CC2)CC1 + Cc1cncc(-c2nc(NCCc3c[nH]c4ccccc34)c3ncn(C(C)C)c3n2)c1
active: viability, T/C [30] 4.54% | viability, T/C [31] 4.29% | viability, T/C [32] 4.31% | viability, T/C [33] 4.01% | viability, T/C [34] 4.31% | viability, T/C [35] 6.37%
< 31.6 nM: IC50 [5]
> 10000 nM: IC50 [1] | IC50 [2] | IC50 [3] | IC50 [4]
inactive: viability, T/C [6] 96.9% | viability, T/C [7] 93.8% | viability, T/C [8] 89.2% | viability, T/C [9] 88.5% | viability, T/C [10] 89.2% | viability, T/C [11] 87.3% | viability, T/C [12] 102% | viability, T/C [13] 101% | viability, T/C [14] 97.9% | viability, T/C [15] 94.7% | viability, T/C [16] 93.8% | viability, T/C [17] 86% | viability, T/C [18] 92.8% | viability, T/C [19] 89.4% | viability, T/C [20] 93.8% | viability, T/C [21] 88.8% | viability, T/C [22] 84% | viability, T/C [23] 86% | viability, T/C [24] 56.3% | viability, T/C [25] 62.5% | viability, T/C [26] 59.8% | viability, T/C [27] 58.2% | viability, T/C [28] 54.3% | viability, T/C [29] 57.7%

COc1cc(C2c3cc4c(cc3C(OC3OC5COC(C)OC5C(O)C3O)C3COC(=O)C23)OCO4)cc(OC)c1O (stereo not drawn)
inactive: viability, T/C (compound 0.0316 µM) 93% and 80.8% and 89.6% | viability, T/C (compound 0.1 µM) 85.5% and 80.2% and 81.8% | viability, T/C (compound 0.316 µM) 78.7% and 63.3% and 72.5% | viability, T/C (compound 1 µM) 71.5% and 64% and 69.3% | viability, T/C (compound 3.16 µM) 66.6% and 52.6% and 68.2% | viability, T/C (compound 10 µM) 51.8% and 40% and 56.3%
> 10000 nM and 3710 nM: IC50 (curve of compound)

O=C(c1cc(Cc2n[nH]c(=O)c3ccccc23)ccc1F)N1CCN(C(=O)C2CC2)CC1
inactive: viability, T/C (compound 0.0316 µM) 100% and 101% (2×) | viability, T/C (compound 0.1 µM) 103% and 100% and 104% | viability, T/C (compound 0.316 µM) 99.4% and 99.2% and 99.5% | viability, T/C (compound 1 µM) 108% and 99.4% and 100% | viability, T/C (compound 3.16 µM) 106% and 98.4% and 101% | viability, T/C (compound 10 µM) 94% and 92.4% and 92.1%
> 10000 nM: IC50 (curve of compound)
